According to patent US20220351806A1, “Biomarker Panels for Guiding Dysregulated Host Response Therapy” (Endpoint Health Inc., priority 2019, published 2022):

System: sepsis patients
Assay: VANISH trial survival analysis, hydrocortisone vs placebo, by patient subtype classifier
Type: in vivo, human
Parameters: mortality reduction in the placebo group in comparison to the hydrocortisone group / Mortality rate: concentration or dose not given beside the values
Settings: for Mortality reduction: Hydro vs Placebo; for hydro_alive / hydro_dead / mr: SS.B2 Model; for mr: 28-day mortality reduction hydro vs placebo; for Alive / Dead / Mortality rate / Survival rate: Hydro group
Excerpt: The test expression data from each trial were normalized by the platform normalization matrix described above^13 so that the test data were more consistent with the training data. The classifiers (e.g., the Full Model, the SS Model, the S Model, and the P Model) were then applied to the normalized data such that the patients were classified into A, B, and C subtypes. […] Therefore, each sample in the target samples was normalized independently with the normalization matrix of the sample array platform.
Survival and mortality rates were calculated at day 28 because survival and mortality labels at other time points were not available. […] Binomial and Chi-squared with continuity correction tests were used to test for the significance of these differences.
In one example, previously identified subtypes of sepsis patients were used to tune the model to identify these type A and B patients. Two distinct sepsis response signatures (SRS1 and SRS2) were identified in five public studies (E-MTAB-4421, E-MTAB-4451, E-MTAB-5273, E-MTAB-5274, and E-MTAB-7581), where HumanHT-12 v4 BeadChip were used to generate the gene expression profiles of the patient samples. The processed data of those five studies were downloaded and processed using R programming language and software environment for statistical analysis (version 3.6.3). The Bioconductor annotation package, illuminaHumanv4.db (version 1.26.0), was used to annotate microarray probes and expression levels of genes were determined by each individual probe or mean of probes belonging to the same gene. In order to remove cohort biases, the Bioconductor package, limma (version 3.42.2), was used to remove batch effects. Using ss.b2 panel genes, subtype A, B, and C scores were calculated by geometric mean of up/down genes.
To build the classifier, we defined E-MTAB-4421, E-MTAB-4451, E-MTAB-5273, and E-MTAB-5274 as the training dataset and VANISH (E-MTAB-7581) as the testing dataset. We used features (subtype A, B, and C scores) and class labels (SRS1 vs SRS2) in the training dataset to build a machine-learned classifier based on support-vector machine (SVM) method. SVM is a supervised machine learning method for classification analysis. The algorithm finds a single or a set of hyperplanes that maximize the margin among subtype A, B, and C scores. In order to capture non-linear data, the kernel function was used. R package e1071 was used to build the SVM classifier with following parameters: method=“C-classification”, kernal=“radial”, gamma=0.1, and cost=10.
The accuracy of the classifiers was evaluated by Leave-One-Out (LOO) cross-validation over the training dataset. Also the classifier was applied to 117 controlled samples from VANISH trial.
In addition to the SVM-method, thresholds can be employed to scores in order to define A vs. B labels. […] Therefore we applied a heuristic threshold (threshold=0) to subtype A and B scores to classify SRS1-like and SRS2-like in VANISH: SRS2-like label was assigned to samples with subtype A score >0 and subtype B score <0 and SRS1-like label was assigned to the rest of samples.
Besides the heuristic threshold, we also derived the thresholds for subtype A and B scores using the training dataset. Same as the SVM method, we defined E-MTAB-4421, E-MTAB-4451, E-MTAB-5273, and E-MTAB-5274 as the training dataset and VANISH (E-MTAB-7581) as the testing dataset.

[1] = class A, A score cutoff 0.0000, B score cutoff 0.0000, accuracy in training set 0.74830, 76.07% of patients
[2] = class A, A score cutoff 0.0000, B score cutoff 0.0000, accuracy in training set 0.74830, 76.92% of patients
[3] = class A, A score cutoff 0.0000, B score cutoff 0.0000, accuracy in training set 0.75283, 76.92% of patients
[4] = class A, A score cutoff 0.0000, B score cutoff 0.0000, accuracy in training set 0.75283, 82.91% of patients
[5] = class A, A score cutoff 0.0000, B score cutoff 0.0000, accuracy in training set 0.76871, 62.39% of patients
[6] = class A, A score cutoff 0.0000, B score cutoff 0.0000, accuracy in training set 0.76871, 76.92% of patients
[7] = class A, A score cutoff −0.0406, B score cutoff 0.1067, accuracy in training set 0.79592, 58.12% of patients
[8] = class A, A score cutoff −0.0406, B score cutoff 0.1067, accuracy in training set 0.79592, 74.36% of patients
[9] = class A, A score cutoff −0.1277, B score cutoff 0.3630, accuracy in training set 0.83673, 60.68% of patients
[10] = class A, A score cutoff −0.1277, B score cutoff 0.3630, accuracy in training set 0.83673, 70.09% of patients
[11] = class A, A score cutoff −0.2664, B score cutoff 0.3179, accuracy in training set 0.82483, 58.12% of patients
[12] = class A, A score cutoff −0.2664, B score cutoff 0.3179, accuracy in training set 0.82483, 60.68% of patients
[13] = class B, A score cutoff 0.0000, B score cutoff 0.0000, accuracy in training set 0.74830, 23.08% of patients
[14] = class B, A score cutoff 0.0000, B score cutoff 0.0000, accuracy in training set 0.74830, 23.93% of patients
[15] = class B, A score cutoff 0.0000, B score cutoff 0.0000, accuracy in training set 0.75283, 17.09% of patients
[16] = class B, A score cutoff 0.0000, B score cutoff 0.0000, accuracy in training set 0.75283, 23.08% of patients
[17] = class B, A score cutoff 0.0000, B score cutoff 0.0000, accuracy in training set 0.76871, 23.08% of patients
[18] = class B, A score cutoff 0.0000, B score cutoff 0.0000, accuracy in training set 0.76871, 37.61% of patients
[19] = class B, A score cutoff −0.0406, B score cutoff 0.1067, accuracy in training set 0.79592, 25.64% of patients
[20] = class B, A score cutoff −0.0406, B score cutoff 0.1067, accuracy in training set 0.79592, 41.88% of patients
[21] = class B, A score cutoff −0.1277, B score cutoff 0.3630, accuracy in training set 0.83673, 29.91% of patients
[22] = class B, A score cutoff −0.2664, B score cutoff 0.3179, accuracy in training set 0.82483, 39.32% of patients
[23] = class B, A score cutoff −0.2664, B score cutoff 0.3179, accuracy in training set 0.82483, 41.88% of patients
[24] = VANISH trial, day 28, Full Model, Total
[25] = VANISH trial, day 28, Full Model, subtype A
[26] = VANISH trial, day 28, Full Model, subtype B

Q: Which results are given for `C[C@]12CCC(=O)C=C1CC[C@@H]1[C@@H]2[C@@H](O)C[C@@]2(C)[C@H]1CC[C@]2(O)C(=O)CO` [Hydro, hydrocortisone]?
A: Mortality reduction (1-(lower/higher mortality rate), VANISH trial, day 28, Full Model, Total): 33.0%; Mortality reduction (1-(lower/higher mortality rate), VANISH trial, day 28, Full Model, subtype A): 64.6%; Mortality reduction (1-(lower/higher mortality rate), VANISH trial, day 28, Full Model, subtype B): 35.2%; Mortality reduction (1-(lower/higher mortality rate), VANISH trial, day 28, Full Model, subtype C): 56.8%; Mortality reduction (1-(lower/higher mortality rate), VANISH trial, day 28, Full Model, subtypes CA): 60.6%; Mortality reduction (1-(lower/higher mortality rate), VANISH trial, day 28, P Model, Total): 33.0%; Mortality reduction (1-(lower/higher mortality rate), VANISH trial, day 28, P Model, subtype A): 77.6%; Mortality reduction (1-(lower/higher mortality rate), VANISH trial, day 28, P Model, subtype B): 9.7%; Mortality reduction (1-(lower/higher mortality rate), VANISH trial, day 28, P Model, subtypes CA): 56.5%; Mortality reduction (1-(lower/higher mortality rate), VANISH trial, day 28, SS Model, Total): 33.0%; Mortality reduction (1-(lower/higher mortality rate), VANISH trial, day 28, SS Model, subtype A): 86.0%; Mortality reduction (1-(lower/higher mortality rate), VANISH trial, day 28, SS Model, subtype B): 20.0%; Mortality reduction (1-(lower/higher mortality rate), VANISH trial, day 28, SS Model, subtype C): 4.0%; Mortality reduction (1-(lower/higher mortality rate), VANISH trial, day 28, SS Model, subtypes CA): 42.2%; Mortality reduction (1-(lower/higher mortality rate), VANISH trial, day 28, SS.B2 Model (SVM), Total): 33.0%; Mortality reduction (1-(lower/higher mortality rate), VANISH trial, day 28, SS.B2 Model (SVM), type A (SRS2-like)): 77.3%; Mortality reduction (1-(lower/higher mortality rate), VANISH trial, day 28, SS.B2 Model (SVM), type B (SRS1-like)): 24.2%; Mortality reduction (VANISH trial, day 28, S Model, subtype C): Hydro; Mortality reduction (VANISH trial, day 28, S Model, subtypes CA): Hydro; hydro_alive [1]: 29; hydro_dead [1]: 13; mr [1]: 3.8%; hydro_alive [2]: 29; hydro_dead [2]: 13; mr [2]: 5.8%; hydro_alive [3]: 29; hydro_dead [3]: 13; mr [3]: 5.8%; hydro_alive [4]: 32; hydro_dead [4]: 15; mr [4]: 12.3%; hydro_alive [5]: 21; hydro_dead [5]: 12; mr [5]: 3.8%; hydro_alive [6]: 29; hydro_dead [6]: 13; mr [6]: 5.8%; hydro_alive [7]: 21; hydro_dead [7]: 12; mr [7]: 2.1%; hydro_alive [8]: 29; hydro_dead [8]: 13; mr [8]: 0.5%; hydro_alive [9]: 25; hydro_dead [9]: 11; mr [9]: 17.7%; hydro_alive [10]: 28; hydro_dead [10]: 13; mr [10]: 0.0%; hydro_alive [11]: 23; hydro_dead [11]: 11; mr [11]: 15.4%; hydro_alive [12]: 24; hydro_dead [12]: 12; mr [12]: 10.3%; hydro_alive [13]: 7; hydro_dead [13]: 9; mr [13]: 83.8%; hydro_alive [14]: 7; hydro_dead [14]: 9; mr [14]: 85.2%; hydro_alive [15]: 4; hydro_dead [15]: 7; mr [15]: 82.5%; hydro_alive [16]: 7; hydro_dead [16]: 9; mr [16]: 83.8%; hydro_alive [17]: 7; hydro_dead [17]: 9; mr [17]: 83.8%; hydro_alive [18]: 15; hydro_dead [18]: 10; mr [18]: 86.8%; hydro_alive [19]: 7; hydro_dead [19]: 9; mr [19]: 87.3%; hydro_alive [20]: 15; hydro_dead [20]: 10; mr [20]: 79.2%; hydro_alive [21]: 8; hydro_dead [21]: 9; mr [21]: 79.0%; mr (class B, A score cutoff −0.1277, B score cutoff 0.3630, accuracy in training set 0.83673, 39.32% of patients): 83.3%; hydro_alive [22]: 12; hydro_dead [22]: 10; mr [22]: 81.7%; hydro_alive [23]: 13; hydro_dead [23]: 11; mr [23]: 82.5%; mortality reduction in the placebo group in comparison to the hydrocortisone group (VANISH trial, 28-day, Type-A (SRS2-like) patients by SVM classifier on ss.b2 scores): 75.5%; Alive [24]: 36; Dead [24]: 22; Mortality rate [24]: 37.9%; Survival rate [24]: 62.1%; Alive [25]: 9; Dead [25]: 8; Mortality rate [25]: 47.1%; Survival rate [25]: 52.9%; Alive [26]: 16; Dead [26]: 6; Mortality rate [26]: 27.3%; Survival rate [26]: 72.7%
